For one experiment, the target named is FOLR2 (Homo sapiens (Human), UniProt P14207). In words: SPR binding kinetics of compounds to folate receptor (FOLR2 immobilized on CM5 chip). The procedure:
A Biacore 8K+ was used to measure the association and dissociation rates of example compounds to FOLR2 (Acro Biosystems, Cat: F02-H5223-100 μg). Briefly, FOLR2 was reconstituted according to the manufacture's instructions to 200 μg/mL. Both the active and reference surfaces of a Cytiva CM5 Series S Sensor Chip were activated with a 1:1 mixture of 400 mM EDC and 100 mM NHS for 420 s at 10 μL/min. 25 μg/mL FOLR2 diluted in Sodium Acetate pH 5.5 was injected on the active channel (Flow Cell 2) for 420 s at 10p/min. Both the reference and active surfaces were then capped with 1M ethanolamine, pH 8.5 for 420 s, achieving an immobilization level of ˜4200 RU. Example compounds were serially diluted 1:1 in running buffer (10 mM HEPES, 150 mM NaCl, 0.05% T20, pH 7.5, 2% DMSO) from 100 nM to 3.125 nM and flowed over the active and reference surfaces for 120 s, and then allowed to dissociate in running buffer for 600 s, at 30 uL/min. The FOLR2 immobilized active surface and the reference surface were regenerated with a 30 s pulse of Sodium Acetate pH 5.5 at 30 μL/min. Sensorgrams were solvent corrected, double-referenced, and the data fitted and analyzed in Biacore Insight Evaluation Software Version 3.0.11.15423.
(In general: SPR reads the build-up and loss of mass on a sensor chip optically.)

A further experiment has as its target TNFα trimer (Homo sapiens, UniProt P01375). Nature of the experiment: SPR binding kinetics of compounds to TNFα trimer. The note with it: for Kd: class symbols. The procedure: Streptavidin 100 μg/mL Streptavidin (Invitrogen Cat #: 434302) diluted in 10 mM sodium acetate, pH 4.5) was immobilized to both the reference and active surfaces as described in Example 51. The surfaces were conditioned with three injections of running Buffer (10 mM HEPES, 150 mMNaCl, 0.05% T20, pH 7.5, 2% DMSO) at a flow rate of 10 μL/min, Contact time: 60 s. Flow rate: 10 μL/min. The active surface was treated with biotinylated linked TNFα trimer 20 μg/mL diluted in running buffer at a flow rate of 5 μL/min contact time: 600 s, yielding a final response of ˜3000 RU. Example compounds were then serially diluted 1:1 in running buffer (10 mM HEPES, 150 mM NaCl, 0.05% T20, pH 7.5, 2% DMSO) from 30 uM to 937.5 nM and flowed over the active and reference surfaces from lowest concentration to greatest concentration in the single-cycle kinetics format, and then allowed to dissociate in running buffer for 7200 s, at 30 μL/min. Sensorgrams were solvent corrected, double-referenced, and the data fitted and analyzed in Biacore Insight Evaluation Software Version 3.0.11.15423.

In another experiment the test system is THP-1 cells. In words: Compound mediated uptake of TNFα-pHrodo in THP-1 cells (flow cytometry). Further details: key to Uptake in THP1 cells (run) 2 / Uptake in THP1 cells (run) 3 / Uptake in THP1 cells (run) 4: + = ΔMFI less than that of I-17; ++ = ΔMFI ≈ to that of I-17; +++ = ΔMFI greater than that of I-17. As to conditions: ΔMFI compared with I-17, uptake at 10 μM. Type of experiment: cell-based. As to the method:
THP-1 cells, a monocytic leukemia cell line that endogenously express folate receptor beta, were used as a model system to measure example compound stimulated uptake of in-house produced TNFα conjugated to the pH sensitive fluorescent dye pHrodo green (ThermoFisher Scientific #P35369).
THP-1 cells were maintained in RPMI (Gibco #61870143) with 10% v/v FBS (VWR #89510-188) with 2 mM L-alanyl-L-glutamine dipeptide, 100 units/ml penicillin and 100 μg/ml streptomycin (Gibco #15140148). Cells were pelleted, resuspended in folate-free RPMI (Gibco #27016021) and seeded at 50,000 cells per well of a 96 well plate. Example compound was added to each well as a log 2 dilution series ranging from 20 μM to 125 nM final concentration. Cells were incubated for 24 hrs and washed/resuspended in phosphate buffered saline (pH 7.4) with 1% w/v BSA. Uptake was measured using a Novocyte Advanteon Flow Cytometer (Agilent Technologies) with the […] and FITC detection configuration.

Experiment [1] concerns THP-1 cells overexpressing FOLR2. In words: LYTAC mediated uptake of TNFα-Alexa647 in THP-1 WT / FOLR2 overexpressing cells (ΔMFI). Type of experiment: cell-based. More on the design: New-uptake 100 nM-% Example 46 / New-uptake 10 nm-% Example 46: unit not given here. The procedure: Hetero-bifunctional small molecule LYTACs consisting of a TNFα binding moiety, linker and folate receptor binding moiety were tested to determine if folate receptor can internalize TNFα. THP-1 cells overexpressing FOLR2 were generated by stable transduction with lentivirus encoding FOLR2-IRES-GFP. THP-1 WT and FOLR2 overexpressing cells were maintained in RPMI (Gibco #61870143) with 10% v/v FBS (VWR #89510-188) with 2 mM L-alanyl-L-glutamine dipeptide, 100 units/ml penicillin and 100 μg/ml streptomycin (Gibco #27016021). Stable FOLR2 over-expression cells were mixed at a 50:50 ratio with WT THP-1 cells and seeded in a 96 well plate at 50,000 cells in 100 μl folate-free RPMI (Gibco […]) with 10% v/v FBS, 2 mM L-alanyl-L-glutamine dipeptide, 100 units/ml penicillin and 100 μg/ml streptomycin. In a separate 96 well plate, TNFα/folate hetero-bifunctional small molecules were mixed with unmodified TNFα conjugated with Alexa647 by non-specific lysine chemistry. Small molecule LYTACs at a concentration of 600 nM (2× final concentration) in 100 μl folate-free RPMI+10% FBS were incubated at room temperature for 30 mins. The immune complex was serially diluted 3-fold to produce a dose response range from 300 nM-0.137 nM (final concentration). The TNFα/LYTAC complex mixture was transferred to the plate containing a 50:50 mixture of THP1 WT and FOLR2 over expressing cells and incubated for 2 h at 37° C. with 5% C02. Uptake in WT and FOLR2 overexpressing cells was evaluated by flow cytometry by comparing the median fluorescence intensity of […] in the GFP negative (WT) and GFP positive (FOLR2) populations and was quantified as the difference between the mean fluorescence intensities in the APC channel for the GFP positive and GFP negative populations (ΔMFI).

The target in a further experiment is TNFα (Homo sapiens (Human), UniProt P01375). In words: TNFα binding assay (time-resolved FRET, biotinylated TNFα). The note with it: 1 nM biotinylated TNFα, 80 nM probe, 16 hr incubation; read-out: TNF-HTRF-biotin. In outline: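 Time-resolved FRET displacement of 80 nM acceptor probe from 1 nM biotinylated TNFα with 0.5 nM streptavidin-Tb in 20 mM Hepes pH 7.5, 10 mM MgCl2, 0.015% Tween-20, 0.05 mg/ml BSA, 2% DMSO. Read (ex 340, em 490/520 nm) after 16 hr. Duplicate dose responses normalized to DMSO and 100 nM reference inhibitor; IC50 by 4-parameter fit.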
TNFα, sequence (P01375 77-233): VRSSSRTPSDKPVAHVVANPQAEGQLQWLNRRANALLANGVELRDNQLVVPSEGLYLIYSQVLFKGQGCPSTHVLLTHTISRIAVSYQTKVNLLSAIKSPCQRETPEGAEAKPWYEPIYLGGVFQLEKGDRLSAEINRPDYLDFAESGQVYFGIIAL
A general note: TR-FRET usually uses a lanthanide donor and a delayed reading to cut background.

Experiment [2] concerns the target T1, folate receptor beta (Homo sapiens (Human), UniProt P14207). Nature of the experiment: Folate receptor binding assay (fluorescence polarization). As to conditions: 2.5 nM folate receptor beta, 2 nM FR-Cy probe, 2 hr incubation; read-out: FOLR2-FP. The method, boiled down: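 Fluorescence polarization competition with 2 nM folate–Cy5 probe and 2.5 nM receptor in 20 mM Hepes pH 7.5, 250 mM NaCl, Tween-20, 1% DMSO; 3-fold dilutions, 2 h incubation, ex 620/em 688 nm. Duplicates normalized to DMSO (high) and 1 μM folic acid (low); IC50 from 4-parameter fit.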
(In general: In fluorescence polarisation assays a small probe gives low polarisation when free and higher when bound to something large.)

For experiment [3], the target named is T1, folate receptor beta. Nature of the experiment: Folate receptor SPR assay (biotinylated folate receptor beta on streptavidin chip). Type of experiment: binding. In outline: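 Biotinylated receptor captured on a streptavidin SPR chip; multi-cycle kinetics at 25 °C with 8 compound concentrations (2-fold dilutions) in HEPES pH 7.5, 150 mM NaCl, 0.05% Tween 20, 2% DMSO. Association 120 s, dissociation 600 s; binding parameters from 1:1 model fit.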

The target in experiment [4] is TNFα and streptavidin immobilized FOL2R (Homo sapiens (Human), UniProt P01375+P14207). In words: Ternary complex SPR assay. The format is binding. As to conditions: 10 nM compound, max response normalized to expected response. In outline:
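Biotinylated folate receptor beta captured at ~1800 RU on a streptavidin chip; untagged TNF preincubated 6 hr at 25° C with 10 nM compound in HEPES pH 7.5, 150 mM NaCl, 0.05% Tween 20, 2% DMSO, then injected (110 s association, 600 s dissociation). Maximum response normalized to maximum expected response per compound.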

TNFα trimer, sequence (P01375 77-233 limits assumed): as the sequence (P01375 77-233) above
T1 sequence (P14207 17-255): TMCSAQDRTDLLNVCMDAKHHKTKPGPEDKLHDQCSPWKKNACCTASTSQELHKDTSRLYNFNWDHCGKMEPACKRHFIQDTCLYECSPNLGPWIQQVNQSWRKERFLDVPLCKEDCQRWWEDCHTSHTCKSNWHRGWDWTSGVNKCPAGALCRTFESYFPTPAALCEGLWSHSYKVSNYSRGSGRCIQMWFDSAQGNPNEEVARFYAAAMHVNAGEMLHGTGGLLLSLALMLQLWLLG
FOLR2, sequence (P14207 17-255): as above
TNFα and streptavidin immobilized FOL2R, sequence (P14207 17-230): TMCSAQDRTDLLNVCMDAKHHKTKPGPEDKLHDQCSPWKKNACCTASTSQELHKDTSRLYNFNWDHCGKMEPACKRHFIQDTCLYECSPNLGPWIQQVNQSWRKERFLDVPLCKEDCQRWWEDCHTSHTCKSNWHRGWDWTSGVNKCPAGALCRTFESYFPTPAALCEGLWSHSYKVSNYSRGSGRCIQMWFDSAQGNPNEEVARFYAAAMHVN
TNFα and streptavidin immobilized FOL2R, sequence (P01375 77-233): as the sequence (P01375 77-233) above

For the compound `Nc1nc(O)c2nc(CNc3ccc(C(=O)N[C@@H](CCC(=O)NCCOCCOCCOCCOCc4cn(CCCCCOc5ccc(-c6ccc7nc(COc8cccc(N9CCCC9=O)c8)n(Cc8ccccc8OC(F)F)c7c6)cn5)nn4)C(=O)O)cc3)cnc2n1` [Compound I-25, (S)-18-(4-(((2-amino-4-hydroxypteridin-6-yl)methyl)amino)benzamido)-1-(1-(5-((5-(1-(2-(difluoromethoxy)benzyl)-2-((3-(2-oxopyrrolidin-1-yl)phenoxy)methyl)-1H-benzo[d]imidazol-6-yl)pyridin-2-yl)oxy)pentyl)-1H-1,2,3-triazol-4-yl)-15-oxo-2,5,8,11-tetraoxa-14-azanonadecan-19-oic acid], binding at FOLR2 was characterised by a dissociation constant (Kd) of 0.5 nM. In addition, the koff at TNFα trimer (SPR single cycle kinetics, TNFalpha trimer immobilized, read-out: kd) was determined as 3.65e-06 s⁻¹. Besides, at TNFα trimer, the Kd (commonly the concentration at which binding is half-saturated) was less than 100 nM. Also, in the experiment with THP-1 cells, the “Uptake in THP1 cells (run) 2” value was “+”, the “Uptake in THP1 cells (run) 3” value is listed as “+++” and the “Uptake in THP1 cells (run) 4” value was “++”.

Compound `Cc1nc2ccc(-c3cnn(CCCCCCn4cc(COCCOCCOCCOCCNC(=O)CC[C@H](NC(=O)c5ccc(NCc6cnc7nc(N)nc(O)c7n6)cc5)C(=O)O)nn4)c3)cn2c1Cc1cc(Cl)ccc1Cl` [Compound I-26, (S)-18-(4-(((2-amino-4-hydroxypteridin-6-yl)methyl)amino)benzamido)-1-(1-(6-(4-(3-(2,5-dichlorobenzyl)-2-methylimidazo[1,2-a]pyridin-6-yl)-1H-pyrazol-1-yl)hexyl)-1H-1,2,3-triazol-4-yl)-15-oxo-2,5,8,11-tetraoxa-14-azanonadecan-19-oic acid] returned a Kd on FOLR2 of 0.2 nM. Also, at TNFα trimer, the Kd is less than 5000 nM. Also, in the experiment on THP-1 cells, the “Uptake in THP1 cells (run) 2” value was “+++”, the “Uptake in THP1 cells (run) 3” value was “+” and the “Uptake in THP1 cells (run) 4” value is “+”.

Take `Cc1nc2cc(F)c(-c3cnc(N4CCN(C(=O)COCCn5cc(CN(CCO)CCOCCOCCOCCNC(=O)CC[C@H](NC(=O)c6ccc(NCc7cnc8nc(N)nc(O)c8n7)cc6)c6nn[nH]n6)nn5)CC4)nc3)nc2c(N[C@H](C)c2cc(C#N)ccc2F)c1Cl` [Compound I-80, 4-(((2-amino-4-hydroxypteridin-6-yl)methyl)amino)-N—((S)-3-((1-(2-(2-(4-(5-(7-chloro-8-(((R)-1-(5-cyano-2-fluorophenyl)ethyl)amino)-3-fluoro-6-methyl-1,5-naphthyridin-2-yl)pyrimidin-2-yl)piperazin-1-yl)-2-oxoethoxy)ethyl)-1H-1,2,3-triazol-4-yl)methyl)-1-hydroxy-16-oxo-19-(2H-tetrazol-5-yl)-6,9,12-trioxa-3,15-diazanonadecan-19-yl)benzamide]: in experiment [1] (10 nM compound, relative to Example 46 as printed (I-92 = 1.00)), the “New-uptake 10 nm-% Example 46” value turned out to be 0.89. Also, the “New-uptake 100 nM-% Example 46” value in experiment [1] (100 nM compound, relative to Example 46 as printed (I-92 = 1.00)) is 1.02. For the same compound, the IC50 worked out at 36 nM on TNFα and 12 nM at folate receptor beta [2].

Turning to `Cc1nc2cc(F)c(-c3cnc(N4CCN(C(=O)COCCOCCOCCOCCOCCOCCn5cc(CC[C@H](NC(=O)c6ccc(OCc7ccc8nc(N)nc(O)c8c7)cc6)C(=O)O)nn5)CC4)nc3)nc2c(N[C@H](C)c2cc(C#N)ccc2F)c1Cl` [Compound I-87, (S)-2-(4-((2-amino-4-hydroxyquinazolin-6-yl)methoxy)benzamido)-4-(1-(20-(4-(5-(7-chloro-8-(((R)-1-(5-cyano-2-fluorophenyl)ethyl)amino)-3-fluoro-6-methyl-1,5-naphthyridin-2-yl)pyrimidin-2-yl)piperazin-1-yl)-20-oxo-3,6,9,12,15,18-hexaoxaicosyl)-1H-1,2,3-triazol-4-yl)butanoic acid], the “uptake of TNFα compared the no compound control (DMSO)” value in experiment [1] (300 nM-0.137 nM, 2 h) is reported as “dose-dependent uptake of TNFα”. In experiment [1] (Homo sapiens, ΔMFI FOLR2 overexpressing vs WT THP-1 cells, 2 h), a half-maximal effect (EC50) was put at 15.3 nM. Further, the IC50 was found to be 22 nM on TNFα and 8 nM at folate receptor beta [2]. For the same compound, the Rmax on folate receptor beta [3] (biotinylated folate receptor beta on streptavidin chip) amounted to 18.7 RU. Further, the kd on folate receptor beta [3] (multi-cycle kinetics, 25° C., 1:1 model) is 0.000692 s⁻¹. Moreover, the Kd at folate receptor beta [3] (multi-cycle kinetics, 25° C., 1:1 model, read-out: FOLR2Biotin - SPR Kd) was found to be 0.035 nM. Moreover, on folate receptor beta [3] (pH 7.5, multi-cycle kinetics, 25° C., 1:1 model, read-out: ka), the kon stood at 1.97e+07 M⁻¹ s⁻¹. Moreover, the “TC 150 nM- tagless TNF Normalized” value in experiment [4] (150 nM untagged TNF) came to 25.7%. Further, the “TC 300 nM- tagless TNF Normalized” value in experiment [4] (300 nM untagged TNF) is recorded as 32.8%.

The values are drawn from patent publication US20250127913A1, “BIFUNCTIONAL FOLATE RECEPTOR BINDING COMPOUNDS” (LYCIA THERAPEUTICS, INC., priority 2021, published 2025).
